Legend:
redroot pigweed [1] = experiment: Test Example 5: herbicidal effect by foliage application, plastic box (Table 20, symbol N); assay type: in vivo, redroot pigweed (Amaranthus retroflexus); settings: foliage application, 320 g/ha, evaluated three weeks after application
Procedure, shortened: (§1)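 Post-emergence foliar test in sterilized diluvial soil. Compound applied as water-diluted emulsion at a predetermined rate to 14-day-old plants; evaluation at three weeks.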

windgrass [2] = experiment: Test Example 5: herbicidal effect by foliage application, plastic box (Table 20, symbol L); assay type: in vivo, windgrass (Apera spica-venti); settings: foliage application, 320 g/ha, evaluated three weeks after application
Procedure, shortened: as §1

green foxtail [3] = experiment: Test Example 4: herbicidal effect by soil treatment (Table 19, symbol G); assay type: in vivo, green foxtail (Setaria viridis); settings: amount of applied herbicide 320 g/ha
Procedure, shortened: (§2)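 Scoring uses the grading scale of an earlier test, three weeks post-application. Treatment consists of spraying a diluted emulsion formulation across the surface of sterilized diluvial soil in which seeds are buried near 1.5 cm deep; boxes are kept in a greenhouse between 25° C. and 30° C.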

blackgrass [4] = experiment: Test Example 5: herbicidal effect by foliage application, plastic box (Table 20, symbol J); assay type: in vivo, blackgrass (Alopecurus myosuroides); settings: foliage application, 320 g/ha, evaluated three weeks after application
Procedure, shortened: as §1

oval-leafed pondweed = experiment: Test Example 1: herbicidal activity, application before weed generation under submerged conditions (Table 16, symbol C); assay type: in vivo, oval-leafed pondweed (Monochoria vaginalis); settings: 320 g/ha applied herbicide
Procedure, shortened: (§3)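 Emulsion formulation, water-diluted to set dose, was put onto the flooded surface (4 cm depth, alluvial soil) the same day weeds were sown and 2.5-leaf rice transplanted. After 3 weeks at 25-30 °C under glass, each species was rated 0 (≤5% kill) to 5 (≥90% kill).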

chickweed [5] = experiment: Test Example 5: herbicidal effect by foliage application, plastic box (Table 20, symbol P); assay type: in vivo, common chickweed (Stellaria media); settings: foliage application, 320 g/ha, evaluated three weeks after application
Procedure, shortened: as §1

blackgrass [6] = experiment: Test Example 4: herbicidal effect by soil treatment (Table 19, symbol J); assay type: in vivo, blackgrass (Alopecurus myosuroides); settings: amount of applied herbicide 320 g/ha
Procedure, shortened: as §2

rice flat sedge = experiment: Test Example 3: herbicidal effect by foliage application, Wagner pot (Table 18, symbol E); assay type: in vivo, rice flat sedge (Cyperus iria); settings: amount of applied herbicide 320 g/ha
Procedure, shortened: (§4)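 Plants were sown in alluvial soil held under 0.1–0.5 cm standing water and grown 14 days in a greenhouse at 25–30 °C. An emulsifiable formulation, water-diluted to the set dose, was then sprayed onto the foliage, and effects were scored three weeks later using previously defined criteria.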

southern crabgrass [7] = experiment: Test Example 5: herbicidal effect by foliage application, plastic box (Table 20, symbol F); assay type: in vivo, southern crabgrass (Digitaria ciliaris); settings: foliage application, 320 g/ha, evaluated three weeks after application
Procedure, shortened: as §1

Italian ryegrass [8] = experiment: Test Example 5: herbicidal effect by foliage application, plastic box (Table 20, symbol K); assay type: in vivo, Italian ryegrass (Lolium multiflorum); settings: foliage application, 320 g/ha, evaluated three weeks after application
Procedure, shortened: as §1

green foxtail [9] = experiment: Test Example 5: herbicidal effect by foliage application, plastic box (Table 20, symbol G); assay type: in vivo, green foxtail (Setaria viridis); settings: foliage application, 320 g/ha, evaluated three weeks after application
Procedure, shortened: as §1

Chinese sprangletop = experiment: Test Example 3: herbicidal effect by foliage application, Wagner pot (Table 18, symbol D); assay type: in vivo, chinese sprangletop (Leptochloa chinensis); settings: amount of applied herbicide 320 g/ha
Procedure, shortened: as §4

late watergrass = experiment: Test Example 1: herbicidal activity, application before weed generation under submerged conditions (Table 16, symbol A); assay type: in vivo, late watergrass (Echinochloa oryzicola); settings: 320 g/ha applied herbicide
Procedure, shortened: as §3

persian speedwell [10] = experiment: Test Example 4: herbicidal effect by soil treatment (Table 19, symbol R); assay type: in vivo, Persian speedwell (Veronica persica); settings: amount of applied herbicide 320 g/ha
Procedure, shortened: as §2

lambsquarters [11] = experiment: Test Example 4: herbicidal effect by soil treatment (Table 19, symbol O); assay type: in vivo, lambsquarters (Chenopodium album); settings: amount of applied herbicide 320 g/ha
Procedure, shortened: as §2

chickweed [12] = experiment: Test Example 4: herbicidal effect by soil treatment (Table 19, symbol P); assay type: in vivo, common chickweed (Stellaria media); settings: amount of applied herbicide 320 g/ha
Procedure, shortened: as §2

barnyard grass [13] = experiment: Test Example 5: herbicidal effect by foliage application, plastic box (Table 20, symbol H); assay type: in vivo, barnyard grass (Echinochloa crus-galli); settings: foliage application, 320 g/ha, evaluated three weeks after application
Procedure, shortened: as §1

barnyard grass [14] = experiment: Test Example 4: herbicidal effect by soil treatment (Table 19, symbol H); assay type: in vivo, barnyard grass (Echinochloa crus-galli); settings: amount of applied herbicide 320 g/ha
Procedure, shortened: as §2

velvetleaf [15] = experiment: Test Example 5: herbicidal effect by foliage application, plastic box (Table 20, symbol M); assay type: in vivo, velvetleaf (Abutilon theophrasti); settings: foliage application, 320 g/ha, evaluated three weeks after application
Procedure, shortened: as §1

lambsquarters [16] = experiment: Test Example 5: herbicidal effect by foliage application, plastic box (Table 20, symbol O); assay type: in vivo, lambsquarters (Chenopodium album); settings: foliage application, 320 g/ha, evaluated three weeks after application
Procedure, shortened: as §1

barnyard grass [17] = experiment: Test Example 3: herbicidal effect by foliage application, Wagner pot (Table 18, symbol H); assay type: in vivo, barnyard grass (Echinochloa crus-galli); settings: amount of applied herbicide 320 g/ha
Procedure, shortened: as §4

Italian ryegrass [18] = experiment: Test Example 4: herbicidal effect by soil treatment (Table 19, symbol K); assay type: in vivo, Italian ryegrass (Lolium multiflorum); settings: amount of applied herbicide 320 g/ha
Procedure, shortened: as §2

wild oat [19] = experiment: Test Example 5: herbicidal effect by foliage application, plastic box (Table 20, symbol I); assay type: in vivo, wild oat (Avena fatua); settings: foliage application, 320 g/ha, evaluated three weeks after application
Procedure, shortened: as §1

redroot pigweed [20] = experiment: Test Example 4: herbicidal effect by soil treatment (Table 19, symbol N); assay type: in vivo, redroot pigweed (Amaranthus retroflexus); settings: amount of applied herbicide 320 g/ha
Procedure, shortened: as §2

velvetleaf [21] = experiment: Test Example 4: herbicidal effect by soil treatment (Table 19, symbol M); assay type: in vivo, velvetleaf (Abutilon theophrasti); settings: amount of applied herbicide 320 g/ha
Procedure, shortened: as §2

wild oat [22] = experiment: Test Example 4: herbicidal effect by soil treatment (Table 19, symbol I); assay type: in vivo, wild oat (Avena fatua); settings: amount of applied herbicide 320 g/ha
Procedure, shortened: as §2

persian speedwell [23] = experiment: Test Example 5: herbicidal effect by foliage application, plastic box (Table 20, symbol R); assay type: in vivo, Persian speedwell (Veronica persica); settings: foliage application, 320 g/ha, evaluated three weeks after application
Procedure, shortened: as §1

windgrass [24] = experiment: Test Example 4: herbicidal effect by soil treatment (Table 19, symbol L); assay type: in vivo, windgrass (Apera spica-venti); settings: amount of applied herbicide 320 g/ha
Procedure, shortened: as §2

southern crabgrass [25] = experiment: Test Example 4: herbicidal effect by soil treatment (Table 19, symbol F); assay type: in vivo, southern crabgrass (Digitaria ciliaris); settings: amount of applied herbicide 320 g/ha
Procedure, shortened: as §2

Japanese bulrush = experiment: Test Example 1: herbicidal activity, application before weed generation under submerged conditions (Table 16, symbol B); assay type: in vivo, Japanese bulrush (Schoenoplectus juncoides); settings: 320 g/ha applied herbicide
Procedure, shortened: as §3

Structure (SMILES) | herbicidal effect on N: redroot pigweed (redroot pigweed [1]) | herbicidal effect on L: windgrass (windgrass [2]) | G: green foxtail, herbicidal effect rating (green foxtail [3]) | herbicidal effect on J: blackgrass (blackgrass [4]) | Herbicidal effect on C: oval-leafed pondweed (grade 0-5) (oval-leafed pondweed) | herbicidal effect on P: chickweed (chickweed [5]) | J: blackgrass, herbicidal effect rating (blackgrass [6]) | herbicidal effect on E: rice flat sedge (rice flat sedge) | herbicidal effect on F: southern crabgrass (southern crabgrass [7]) | herbicidal effect on K: Italian ryegrass (Italian ryegrass [8]) | herbicidal effect on G: green foxtail (green foxtail [9]) | herbicidal effect on D: Chinese sprangletop (Chinese sprangletop) | Herbicidal effect on A: late watergrass (grade 0-5) (late watergrass) | R: persian speedwell, herbicidal effect rating (persian speedwell [10]) | O: lambsquarters, herbicidal effect rating (lambsquarters [11]) | P: chickweed, herbicidal effect rating (chickweed [12]) | herbicidal effect on H: barnyard grass (barnyard grass [13]) | H: barnyard grass, herbicidal effect rating (barnyard grass [14]) | herbicidal effect on M: velvetleaf (velvetleaf [15]) | herbicidal effect on O: lambsquarters (lambsquarters [16]) | further results
CCCCOc1ccc(-c2sc3ccc(Cl)cc3c2-c2c(O)c(C)nn(C)c2=O)cc1 [2-109] | 5 (Herbicidal rate of 90% or more (almost completely withered)) | 0 (Herbicidal rate of 5% or less (almost no effect)) | 0 (Herbicidal rate of 5% or less (almost no effect)) | 0 (Herbicidal rate of 5% or less (almost no effect)) | 0 (Herbicidal rate of 5% or less (almost no effect)) | 4 (Herbicidal rate of 70% or more and less than 90%) | 0 (Herbicidal rate of 5% or less (almost no effect)) | 2 (Herbicidal rate of 20% or more and less than 40%) | 0 (Herbicidal rate of 5% or less (almost no effect)) | 0 (Herbicidal rate of 5% or less (almost no effect)) | 1 (Herbicidal rate of 5% or more and less than 20%) | 2 (Herbicidal rate of 20% or more and less than 40%) | 0 (Herbicidal rate of 5% or less (almost no effect)) | 3 (Herbicidal rate of 40% or more and less than 70%) | 2 (Herbicidal rate of 20% or more and less than 40%) | 0 (Herbicidal rate of 5% or less (almost no effect)) | 4 (Herbicidal rate of 70% or more and less than 90%) | 0 (Herbicidal rate of 5% or less (almost no effect)) | 4 (Herbicidal rate of 70% or more and less than 90%) | 4 (Herbicidal rate of 70% or more and less than 90%) | herbicidal effect on H: barnyard grass (barnyard grass [17]): 4 (Herbicidal rate of 70% or more and less than 90%); K: Italian ryegrass, herbicidal effect rating (Italian ryegrass [18]): 0 (Herbicidal rate of 5% or less (almost no effect)); herbicidal effect on I: wild oat (wild oat [19]): 0 (Herbicidal rate of 5% or less (almost no effect)); N: redroot pigweed, herbicidal effect rating (redroot pigweed [20]): 4 (Herbicidal rate of 70% or more and less than 90%); M: velvetleaf, herbicidal effect rating (velvetleaf [21]): 1 (Herbicidal rate of 5% or more and less than 20%); I: wild oat, herbicidal effect rating (wild oat [22]): 0 (Herbicidal rate of 5% or less (almost no effect)); herbicidal effect on R: persian speedwell (persian speedwell [23]): 5 (Herbicidal rate of 90% or more (almost completely withered)); L: windgrass, herbicidal effect rating (windgrass [24]): 0 (Herbicidal rate of 5% or less (almost no effect)); F: southern crabgrass, herbicidal effect rating (southern crabgrass [25]): 0 (Herbicidal rate of 5% or less (almost no effect)); Herbicidal effect on B: Japanese bulrush (grade 0-5) (Japanese bulrush): 3 (Herbicidal rate of 40% or more and less than 70%)
COc1ccccc1-c1sc2ccc(I)cc2c1-c1c(O)c(C)nn(C)c1=O [2-130] | 5 (Herbicidal rate of 90% or more (almost completely withered)) | 0 (Herbicidal rate of 5% or less (almost no effect)) | 0 (Herbicidal rate of 5% or less (almost no effect)) | 0 (Herbicidal rate of 5% or less (almost no effect)) | 0 (Herbicidal rate of 5% or less (almost no effect)) | 5 (Herbicidal rate of 90% or more (almost completely withered)) | 0 (Herbicidal rate of 5% or less (almost no effect)) | 4 (Herbicidal rate of 70% or more and less than 90%) | 0 (Herbicidal rate of 5% or less (almost no effect)) | 0 (Herbicidal rate of 5% or less (almost no effect)) | 0 (Herbicidal rate of 5% or less (almost no effect)) | 0 (Herbicidal rate of 5% or less (almost no effect)) | 0 (Herbicidal rate of 5% or less (almost no effect)) | 0 (Herbicidal rate of 5% or less (almost no effect)) | 3 (Herbicidal rate of 40% or more and less than 70%) | 0 (Herbicidal rate of 5% or less (almost no effect)) | 0 (Herbicidal rate of 5% or less (almost no effect)) | 0 (Herbicidal rate of 5% or less (almost no effect)) | 3 (Herbicidal rate of 40% or more and less than 70%) | 2 (Herbicidal rate of 20% or more and less than 40%) | herbicidal effect on H: barnyard grass (barnyard grass [17]): 3 (Herbicidal rate of 40% or more and less than 70%); K: Italian ryegrass, herbicidal effect rating (Italian ryegrass [18]): 0 (Herbicidal rate of 5% or less (almost no effect)); herbicidal effect on I: wild oat (wild oat [19]): 0 (Herbicidal rate of 5% or less (almost no effect)); N: redroot pigweed, herbicidal effect rating (redroot pigweed [20]): 2 (Herbicidal rate of 20% or more and less than 40%); M: velvetleaf, herbicidal effect rating (velvetleaf [21]): 0 (Herbicidal rate of 5% or less (almost no effect)); I: wild oat, herbicidal effect rating (wild oat [22]): 0 (Herbicidal rate of 5% or less (almost no effect)); herbicidal effect on R: persian speedwell (persian speedwell [23]): 3 (Herbicidal rate of 40% or more and less than 70%); L: windgrass, herbicidal effect rating (windgrass [24]): 0 (Herbicidal rate of 5% or less (almost no effect)); F: southern crabgrass, herbicidal effect rating (southern crabgrass [25]): 0 (Herbicidal rate of 5% or less (almost no effect)); Herbicidal effect on B: Japanese bulrush (grade 0-5) (Japanese bulrush): 3 (Herbicidal rate of 40% or more and less than 70%)

From patent US20230085307A1, “PYRIDAZINONE COMPOUND AND HERBICIDE” (NISSAN CHEMICAL CORPORATION, priority 2019, published 2023)
